# Values of other authors, collected in article PMC2908260 (Journal of nuclear medicine : official publication, Society …, 2010).
# Conditions: other ^18F-labeled octreotide analogues
substance,measurement,value
N^α-(1-deoxy-D-fructosyl)-N^ε-(2-[^18F]fluoropropionyl)-Lys^0-Tyr^3octreotate [[^18F]FP-Gluc-TOCA],log P,−1.70 ± 0.02
